Data reported in USRE47193E1, “Selectively substituted quinoline compounds” (EISAI R&D MANAGEMENT CO., LTD., priority 2013, dated 2019).
Like-named read-outs stand apart in the source and are kept apart here.

Columns and labels:
Human TLR7/8 = experiment: Human PBMC cell-based assay, TLR7/8 stimulus (RNA-Ig), cytokine ELISA
Outline: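 Healthy-donor human PBMC, 2×10^5 cells/well (1×10^5 in later assay), pre-treated 30 min with compound (0.1% DMSO). Stimulated 20 h at 37 °C with RNA-Ig: 26-mer U1 snRNA stem loop IV phosphorothioate RNA at 2.5 μM plus anti-ssDNA antibody (1:25 or 1 ug/ml). Supernatant cytokines by ELISA.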

mouse TLR7 = biological target: T1, mouse TLR7 (Mus musculus, UniProt P58681); experiment: Short-term in vivo (STIV) assay: oral dosing, R848 s.c., plasma IL-6; set-up: female BALB/c mice (Jackson Labs, Bar Harbor, Me.) were dosed by oral gavage; tissue Jackson Labs; host or cells: living female BALB/c mice; plasma IL-6 after s.c. R848
T1 sequence (P58681 27-1050): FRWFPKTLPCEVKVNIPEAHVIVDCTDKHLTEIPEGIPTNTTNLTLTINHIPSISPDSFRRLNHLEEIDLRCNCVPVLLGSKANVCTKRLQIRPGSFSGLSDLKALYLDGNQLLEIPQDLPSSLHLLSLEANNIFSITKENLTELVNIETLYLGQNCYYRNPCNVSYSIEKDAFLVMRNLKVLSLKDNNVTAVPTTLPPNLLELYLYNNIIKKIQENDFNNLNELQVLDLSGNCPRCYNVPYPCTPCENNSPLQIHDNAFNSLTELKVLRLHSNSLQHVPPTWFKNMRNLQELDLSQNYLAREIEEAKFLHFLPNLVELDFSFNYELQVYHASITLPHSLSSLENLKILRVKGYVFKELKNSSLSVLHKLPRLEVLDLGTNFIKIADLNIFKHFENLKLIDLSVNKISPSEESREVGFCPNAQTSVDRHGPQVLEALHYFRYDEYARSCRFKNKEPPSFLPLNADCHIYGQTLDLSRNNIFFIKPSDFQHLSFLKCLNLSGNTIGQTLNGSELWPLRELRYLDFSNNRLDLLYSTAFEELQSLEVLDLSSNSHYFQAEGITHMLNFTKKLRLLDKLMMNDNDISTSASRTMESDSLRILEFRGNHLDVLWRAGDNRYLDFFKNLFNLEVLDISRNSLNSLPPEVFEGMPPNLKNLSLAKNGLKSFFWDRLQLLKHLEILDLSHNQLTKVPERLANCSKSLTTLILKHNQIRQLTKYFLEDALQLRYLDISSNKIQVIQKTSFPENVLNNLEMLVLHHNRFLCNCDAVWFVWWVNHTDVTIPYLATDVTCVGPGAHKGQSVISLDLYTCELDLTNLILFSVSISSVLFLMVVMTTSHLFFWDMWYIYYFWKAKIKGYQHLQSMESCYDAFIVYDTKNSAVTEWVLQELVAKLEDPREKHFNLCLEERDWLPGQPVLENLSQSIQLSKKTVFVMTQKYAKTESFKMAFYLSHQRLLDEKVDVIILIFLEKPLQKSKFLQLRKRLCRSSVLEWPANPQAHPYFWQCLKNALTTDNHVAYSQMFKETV
Method: Figure Legend: Female BALB/c mice were dosed by oral gavage with Vehicle alone (0.5% aqueous methyl-cellulose) or compound formulated in Vehicle at 33 mg/kg, 100 mg/kg or 300 mg/kg. […] (FIG. 1A).
Short-term in vivo (STIV) assay: To assess compound potency in vivo against mouse TLR7, a short-term in vivo (STIV) assay was utilized. Briefly, mice were orally dosed with compounds and at various time points afterwards were injected subcutaneously with agonist R848 to stimulate TLR7. The plasma IL-6 level following R848 stimulation was then measured by ELISA to assess compound potency and duration-of-action.
Short-term in vivo (STIV) assay. Six to eight week old female BALB/c mice (Jackson Labs, Bar Harbor, Me.) were dosed by oral gavage in 200 ul volume with antagonist compounds formulated in 0.5% aqueous methyl-cellulose (Sigma, St. Louis, Mo.). At various time points afterwards, mice were injected subcutaneously (s.c.) in 100 ul volume with 15 ug R848 (Resiquimod; GLSynthesis, Worcester, Mass.) to stimulate TLR7.

[1] = primary human PBMC assay, TLR7/8 potency; ligand not given; read-out: Human PBMCs IC50

Compound	IC50 (Human TLR7/8; [1])	% Suppression vs. Vehicle (mouse TLR7; 6 h, 33 mg/kg)	% Suppression vs. Vehicle (mouse TLR7; 13 h, 33 mg/kg)	% Suppression vs. Vehicle (mouse TLR7; 13 h, 100 mg/kg)	% Suppression vs. Vehicle (mouse TLR7; 13 h, 300 mg/kg)	% Suppression vs. Vehicle (mouse TLR7; 24 h, 33 mg/kg)	% Suppression vs. Vehicle (mouse TLR7; 24 h, 100 mg/kg)	% Suppression vs. Vehicle (mouse TLR7; 24 h, 300 mg/kg)	% Suppression vs. Vehicle (mouse TLR7; 6 h, 100 mg/kg)	% Suppression vs. Vehicle (mouse TLR7; 6 h, 11 mg/kg)	% Suppression vs. Vehicle (mouse TLR7; 13 h, 11 mg/kg)	% Suppression vs. Vehicle (mouse TLR7; 24 h, 11 mg/kg)	IC50 (Human TLR7/8; read-out: Human PBMCs IC50; primary human PBMC assay, TLR7/8 potency; ligand not given)
CC1CN(c2ccc(C#N)c3ncccc23)CC(C(=O)NC2CCCNC2)O1 (centres unmarked) [ER-897968]	1 nM	81%	3%	35%	85%	0%	8%	80%					
CC1CN(c2ccc(C#N)c3ncccc23)CC(C(=O)NCC2CCCN2)O1 (centres unmarked) [ER-897969]	7 nM	0%	29%	54%	71%	0%	4%	29%					
CC1CN(c2ccc(C#N)c3ncccc23)CC(C(=O)NCC(C)(C)N(C)C)O1 (centres unmarked) [ER-898566]	11 nM	100%	73%	86%	98%	0%	30%	100%	99%				
CC1CN(c2ccc(C#N)c3ncccc23)CC(C(=O)NCC2CNCCO2)O1 (centres unmarked) [ER-898694]	2 nM	93%	2%	36%	53%	0%	0%	35%					
CC1CN(c2ccc(C#N)c3ncccc23)CC(C(=O)NC2CCNCC2)O1 (centres unmarked) [ER-898946]	2 nM	61%	2%	16%	55%	28%	0%	34%					
CC1CN(c2ccc(C#N)c3ncccc23)CC(C(=O)N2CC3(CCNC3)C2)O1 (centres unmarked) [ER-899017]	4 nM	34%	0%	0%	10%		0%	0%					
CNCC1CN(C(=O)[C@H]2CN(c3ccc(C#N)c4ncccc34)C[C@@H](C)O2)C1 [ER-899018]	9 nM			12%					73%				
CC1CN(c2ccc(C#N)c3ncccc23)CC(C(=O)NC2CCOCC2)O1 (centres unmarked) [ER-899122]	80 nM		90%	100%		15%	89%			98%	37%	0%	
CC1CN(c2ccc(C#N)c3ncccc23)CC(C(=O)N2CCC3(CCNCC3)CC2)O1 (centres unmarked) [ER-899193]	9 nM			52%					43%				
CC1CN(c2ccc(C#N)c3ncccc23)CC(C(=O)Nc2cnn(C3CCNCC3)c2)O1 (centres unmarked) [ER-899285]	7 nM			0%					75%				
C[C@@H]1CN(c2ccc(C#N)c3ncccc23)C[C@H](C(=O)N[C@@H]2CCCN(C)C2)O1 [ER-899337]	2 nM			30%					99%				
CC1CN(c2ccc(C#N)c3ncccc23)CC(C(=O)NC2CCCNCC2)O1 (centres unmarked) [ER-899417]	1 nM			0%					71%				
CC1CN(c2ccc(C#N)c3ncccc23)CC(C(=O)NC2C3CNCC32)O1 (centres unmarked) [ER-899418]	5 nM			10%					19%				
CC1CN(c2ccc(C#N)c3ncccc23)CC(C(=O)NC2CNCC2F)O1 (centres unmarked) [ER-899476]				65%					99%				3 nM
C[C@@H]1CN(c2ccc(C#N)c3ncccc23)C[C@H](C(=O)NC2CCN(CC(N)=O)CC2)O1 [ER-899481]	8 nM			5%					54%				
C[C@@H]1CN(c2ccc(C#N)c3ncccc23)C[C@H](C(=O)N(C)[C@@H]2CCCNC2)O1 [ER-899616]	54 nM			27%					79%				
C[C@@H]1CN(c2ccc(C#N)c3ncccc23)C[C@H](C(=O)N(C)[C@H]2CCCNC2)O1 [ER-899619]	33 nM			35%					79%				
CC1CN(c2ccc(C#N)c3ncccc23)CC(C(=O)NC2CCCN(C)C2)O1 (centres unmarked) [ER-899688]	11 nM			96%					10%				
C[C@@H]1CN(c2ccc(C#N)c3ncccc23)C[C@H](C(=O)N[C@@H]2CNC[C@@H]2F)O1.Cl [ER-899745]	4 nM			5%					100%				
